Where two headings read alike, the source gives them in different places.
What was measured:
[1] = active element release into the headspace of emulsions under in vitro dynamic conditions, monitored by PTR-MS; format: physicochemical; conditions: for significance of Tmax difference: emulsion of this invention 5 wt % (MG:MCT 1:20) vs simple reference emulsion 5 wt % MCT, Fisher LSD, α<0.05
From the text: The Tmax of a given active element released from a given emulsion is a parameter determined from the curve representing the variation over time of the given active element concentration in the water phase or in the headspace of the emulsion or of product containing the emulsion under dynamic condition (denoted as release curve) as time at which the measured concentration of the given active element reaches its maximum (FIG. 1). The analytical methods that can be applied for measurement of release curve and corresponding Tmax in dynamic condition include, but are not restricted to, measuring in headspace under a continuous purging flow of nitrogen and analyzing the active element in the purged headspace gas through its specific mass-to-charge using Proton Transfer Reaction-Mass Spectrometry (PTR-MS) (Pollien, P., Lindinger, C., Yeretzian, C., and Blank, I., “Proton Transfer Reaction Mass Spectrometry, a Tool for On-Line Monitoring of Acrylamide Formation in the Headspace of Maillard Reaction Systems and Processed Food,” Analytical Chemistry, Vol. 75, No. 20, 2003, pp. 5488-5494).
A double-jacketted glass cell was held at 36° C. with a circulating water bath. This cell was put in the oven which was held at 60° C. in order to avoid cold points and water condensation. The headspace cell was continuously purged at 200 sccm (standard cubic centimeters per minute) with pure nitrogen. Prior to introduction into the PTR-MS, the headspace was diluted with 1960 sccm of nitrogen to avoid water saturation of the instrument.
When all the set-up had been thermo-stabilized, 100 ml of sample, after being stabilized at 36° C. in a water bath, was poured inside the cell, which was quickly reconnected and put under agitation at 135 rpm. The release of active elements was monitored on-line during 10 minutes for each sample.
Nine specific masses were selected based on the scan data, i.e., m/z 45 for acetaldehyde, m/z 83 for cis-3-Hexen-1-ol, m/z 87 for diacetyl, m/z 99 for 2E-hexenal, m/z 107 for benzaldehyde, m/z 111 for octanal, m/z 131 for ethyl isovalerate, m/z 137 linalool, m/z 167 for 3-methoxy-2-isobutylpyrazine.
The PTR-MS signals (ion count) enabled us to calculate the active element concentration in the headspace of the emulsion so that to build the release curve for the active element. Cmax of a given active element released from a given emulsion was determined from the release curve as the maximum concentration of the active element released in the headspace of the emulsion, expressed in ppmV (parts per million in volume).
Tmax of a given active element released from a given emulsion was determined from the release curve as the time to reach maximum concentration of the active element released in the headspace of the emulsion, expressed in seconds. The nine active elements are listed in X axis and sorted along their logP, from the lowest logP value (hydrophilic compounds) to the highest logP (lipophilic compounds). Black, grey and hatched bars represent respectively Tmax the active elements released in the headspace of an oil-in-water emulsion containing with 10 wt % Medium Chain Triglycerides (MCT) (herein labelled as simple emulsion with 10 wt % MCT), of an oil-in-water emulsion containing 5 wt % MCT (herein labelled as simple reference emulsion with 5 wt % MCT), and an oil-in-water emulsion containing 5 wt % of an 1:20 mixture of a unsaturated monoglyceride (DIMODAN MO90, Danisco, Denmark) and MCT (herein Emulsion of the present invention with 5 wt % (MG:MCT 1:20)). All Tmax values were obtained on 6 replicated measurements. Tmax of 2E-Hexenal for the simple emulsion with 10 wt % MCT is not determined because its concentration in the headspace was continuously and gradually increasing over the 10 minutes of measurement. […]

[2] = octanol/water partition coefficient (logP) of the active elements; format: physicochemical
From the text: The logarithm of the octanol/water partition coefficient (logP) is used extensively to describe the lipophilic or hydrophobic properties of an active element. The logP property value is taken from the ratio of the respective concentrations of the active element in the n-octanol and water partitions of a two-phase system at equilibrium. Among other methods, the classical and most reliable method of logP determination is the shake-flask method, which consists of dissolving some of the active element in question in a volume of n-octanol and water, then measuring the concentration of the solute in each solvent (Organization for Economic Cooperation and Development, Guidelines for The Testing of Chemicals, OECD 107, Partition Coefficient (n-octanol/water)-Shake Flask Method, Adopted 27 Jul. 1995-, OECD, Paris, France).
Table 1 lists active elements used in the study, providing chemical name (first column), the Chemical Abstract Service number (CAS#, second column), supplier and supplier product code (third and fourth column), the logarithm of the octanol/water partition coefficient (logP) and the concentration used in final formulations in parts per million of volume (ppmV). These nine active elements are volatile aroma compounds.

[3] = n-octanol/water, logarithm of the octanol/water partition coefficient, read-out: logP

| Structure (SMILES) | significance of Tmax difference [1] | logP [2] | logP [2, 3] | Cmax released in headspace, comparison ([1]; emulsion of the present invention 5 wt % (MG:MCT 1:20) vs simple emulsion 10 wt % MCT) | logP ([2]; logarithm of the octanol/water partition coefficient) |
| --- | --- | --- | --- | --- | --- |
| CC(=O)C(C)=O [Diacetyl] | non-significant difference | −1.332 |  |  |  |
| COc1nccnc1CC(C)C [3-methoxy-2-isobutylpyrazine] | significant increase |  | 2.62 |  |  |
| C=CC(C)(O)CCC=C(C)C (centres unmarked) [Linalool] | significant increase |  | 3.28 | significantly higher |  |
| CCOC(=O)CC(C)C [Ethyl isovalerate] | significant increase |  | 2.12 |  |  |
| CC/C=C\CCO [cis-3-Hexen-1-ol] | significant increase |  | […] |  |  |
| CC=O [Acetaldehyde] | non-significant difference |  | -0.156 |  |  |
| CCCCCCCC=O [Octanal] | significant increase |  | 3.03 |  |  |
| O=Cc1ccccc1 [Benzaldehyde] | significant increase |  |  |  |  |
| CCC/C=C/C=O [Example 2E-hexenal, 2E-hexenal] |  |  |  |  | 1.576 |

Source: US20100172875A1, “OIL-IN-WATER EMULSION AND ITS USE FOR THE DELAYED RELEASE OF ACTIVE ELEMENTS” (NESTEC S.A., priority 2007, published 2010)
